Literature values as cited in patent publication US20080234349A1, “PPAR active compounds” (priority 2005, published 2008).

Legend:
murine PPARα = molecular target: T1, murine PPARα (Mus musculus, UniProt P23204)
T1 sequence (P23204 1-468): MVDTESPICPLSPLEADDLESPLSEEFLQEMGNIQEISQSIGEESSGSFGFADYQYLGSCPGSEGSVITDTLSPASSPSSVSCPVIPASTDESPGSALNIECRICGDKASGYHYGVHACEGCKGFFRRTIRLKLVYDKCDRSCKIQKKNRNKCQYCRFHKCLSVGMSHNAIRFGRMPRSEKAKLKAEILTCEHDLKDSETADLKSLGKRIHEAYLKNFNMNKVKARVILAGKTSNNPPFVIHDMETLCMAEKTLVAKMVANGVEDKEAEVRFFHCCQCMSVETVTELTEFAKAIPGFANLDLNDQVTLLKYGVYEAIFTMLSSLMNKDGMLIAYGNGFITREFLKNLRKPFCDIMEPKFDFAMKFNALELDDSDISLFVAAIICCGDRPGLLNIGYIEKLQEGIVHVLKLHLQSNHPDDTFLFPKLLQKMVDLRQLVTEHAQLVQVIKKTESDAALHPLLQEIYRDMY

PPARδ = molecular target: T2, PPARδ (Homo sapiens, UniProt Q03181)
T2 sequence (Q03181 1-441): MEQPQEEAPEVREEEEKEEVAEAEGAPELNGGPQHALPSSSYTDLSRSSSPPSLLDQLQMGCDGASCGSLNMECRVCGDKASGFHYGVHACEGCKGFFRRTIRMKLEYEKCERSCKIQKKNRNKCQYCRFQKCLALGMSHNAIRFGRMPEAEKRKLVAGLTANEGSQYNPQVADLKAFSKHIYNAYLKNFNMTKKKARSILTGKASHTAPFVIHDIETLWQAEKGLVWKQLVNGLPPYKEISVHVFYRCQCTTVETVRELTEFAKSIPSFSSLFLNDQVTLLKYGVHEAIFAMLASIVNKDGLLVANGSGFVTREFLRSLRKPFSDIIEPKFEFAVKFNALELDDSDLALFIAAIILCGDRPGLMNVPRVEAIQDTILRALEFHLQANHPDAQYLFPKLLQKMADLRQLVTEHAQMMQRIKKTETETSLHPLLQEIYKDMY

[1] = recent large prospective trial, patients

activity on murine PPARα (murine PPARα) | agonist selectivity for PPARδ over PPARγ (PPARδ) | SMILES | reduction in cardiovascular events or death [1] [%]
inactive | approximately 30 fold | CCCc1c(OCCCOc2ccc(OCC(=O)O)cc2)ccc(C(C)=O)c1O [Compound L-165041] | 
 |  | Cc1ccc(C)c(OCCCC(C)(C)C(=O)O)c1 [gemfibrozil] | 22
